Experimental data reported in patent publication US9440964B2, “Pesticidal compositions and processes related thereto” (Dow AgroSciences LLC, priority 2011, dated 2016).

Tests used:
[1] = system: CEW (Helicoverpa zea); experiment: Bioassay on Corn Earworm (CEW), 128-well diet tray; format: in vivo; details: Helicoverpa zea, 168 h, percent mortality, second instar larvae, five to seven days; for pest or weed control at 0.5 µg/cm2: 0.5 μg/cm^2 on diet, read-out: Rating CEW (*Tested at 0.5 μg/cm^2); for pest or weed control at 50 µg/cm2: 50 μg/cm^2 on diet, read-out: Rating CEW
Protocol: (§1) Certain molecules disclosed in this document were tested against BAW and CEW using procedures described in the following examples. In the reporting of the results, the “BAW & CEW Rating Table” was used (See Table Section).
Bioassays on CEW (Helicoverpa zea)
(§2) Trays were covered with a clear self-adhesive cover and held at 25° C., 14:10 light-dark for five to seven days. Percent mortality was recorded for the larvae in each well; activity in the eight wells was then averaged. The results are indicated in the table entitled “Table ABC: Biological Results” (See Table Section).

[2] = system: BAW (Spodoptera exigua); experiment: Bioassay on Beet Armyworm (BAW), 128-well diet tray; format: in vivo; details: Spodoptera exigua, 168 h; percent mortality, second instar larvae, 50 μg/cm^2 on diet, five to seven days; read-out: Rating BAW
Protocol: as §1
Bioassays on BAW (Spodoptera exigua)
as §2

Compound	pest or weed control at 0.5 µg/cm2 [1] [%]	pest or weed control at 50 µg/cm2 [2] [%]	pest or weed control at 50 µg/cm2 [1] [%]
Cc1ccc(C(C)C)c(N2C(=O)CS/C2=N\C(=O)Nc2ccc(-c3ncn(-c4ccc(OC(F)(F)F)cc4)n3)cc2)c1 [Molecule A87]	50 to 100	50 to 100	
CC(C)C(=O)OCS/C(=N\C(=O)Nc1ccc(-c2ncn(-c3ccc(OC(F)(F)F)cc3)n2)cc1)Nc1ccccc1C(C)C [Molecule A5, (Z)—((N-(2-Isopropylphenyl)-N′-((4-(1-(4-(trifluoromethoxy)phenyl)-1H-1,2,4-triazol-3-yl)phenyl)carbamoyl)carbamimidoyl)thio)methyl isobutyrate]		50 to 100	50 to 100
Cc1cc(C)c(N2C(=O)C(C)S/C2=N\C(=O)Nc2ccc(-c3ncn(-c4ccc(OC(F)(F)F)cc4)n3)cc2)c(C)c1 (stereo not shown) [Molecule A37]		50 to 100	50 to 100
Cc1cc(C)c(N/C(S)=N/C(=O)Nc2ccc(-c3ncn(-c4ccc(OC(F)(F)F)cc4)n3)cc2)c(C)c1 [Molecule A49]		50 to 100	50 to 100
CC(C)c1ccccc1N/C(S)=N/C(=O)Nc1ccc(-c2ccn(-c3ccc(OC(F)(F)F)cc3)n2)cc1 [Molecule A114, N-[[(2-isopropyllphenyl)amino]thioxomethyl]-N′-((4-(1-(4-(trifluoromethoxy)phenyl)-1H-pyrazol-3-yl)phenyl))urea]	50 to 100	50 to 100	
CC(C)C(=O)OCS/C(=N/C(=O)Nc1ccc(-c2ncn(-c3ccc(OC(F)(F)F)cc3)n2)cc1)Nc1c(Cl)cccc1Cl [Molecule A58]		50 to 100	50 to 100
Cc1cccc(Cl)c1N/C(S)=N/C(=O)Nc1ccc(-c2ncn(-c3ccc(OC(F)(F)F)cc3)n2)cc1 [Molecule A70]	50 to 100	50 to 100	
CC(C)c1ccccc1N1C(=O)CS/C1=C(/C#N)C(=O)Nc1ccc(-c2ncn(-c3ccc(OC(F)(F)F)cc3)n2)cc1 [Molecule A31, (Z)-2-Cyano-2-(3-(2-isopropylphenyl)-4-oxothiazolidin-2-ylidene)-N-(4-(1-(4-(trifluoromethoxy)phenyl)-1H-1,2,4-triazol-3-yl)phenyl)acetamide]		50 to 100	50 to 100
Cc1c(F)cccc1N/C(S)=N/C(=O)Nc1ccc(-c2ncn(-c3ccc(OC(F)(F)F)cc3)n2)cc1 [Molecule A79]	50 to 100	50 to 100	
CC(C)c1ccccc1N1C(=O)CS/C1=N\C(=O)Nc1ccc(-c2ncn(-c3ccc(OC(F)(F)F)cc3)n2)cc1 [Molecule A19, (Z)-1-(3-(2-isopropylphenyl)-4-oxothiazolidin-2-ylidene)-3-(4-(1-(4-(trifluoromethoxy)phenyl)-1H-1,2,4-triazol-3-yl)phenyl)urea]		50 to 100	50 to 100
COc1ccc(N/C(=N/C(=O)Nc2ccc(-c3ncn(-c4ccc(C(F)(F)F)cc4)n3)cc2)SCOC(=O)C(C)C)c(C)c1 [Molecule A1, (E)-((N′-(4-methoxy-2-methylphenyl)-N-((4-(1-(4-(trifluoromethyl)phenyl)-1H-1,2,4-triazol-3-yl)phenyl)carbamoyl)carbamimidoyl)thio) methyl isobutyrate]		50 to 100	50 to 100
CC(C)C(=O)OCS/C(=N/C(=O)Nc1ccc(-c2ncn(-c3ccc(OC(F)(F)F)cc3)n2)cc1)Nc1c(F)cccc1F [Molecule A61]		50 to 100	50 to 100
CCc1ccccc1NC(=O)NC(=O)Nc1ccc(-c2ncn(-c3ccc(OC(F)(F)F)cc3)n2)cc1 [Molecule A52]		50 to 100	50 to 100
COc1cc(C)c(N/C(S)=N/C(=O)Nc2ccc(-c3ncn(-c4ccc(OC(F)(F)F)cc4)n3)cc2)c(C)c1 [Molecule A50]		50 to 100	50 to 100
CC(C)c1ccccc1NC(=O)NC(=O)Nc1ccc(-c2ncn(-c3ccc(OC(F)(F)F)cc3)n2)cc1 [Molecule A13, 1-(2-isopropylphenyl)-3-[[4-[1-[4-(trifluoromethoxy)phenyl]-1,2,4-triazol-3-yl]phenyl]carbamoyl]urea]		50 to 100	50 to 100
Cc1cccc(N2C(=O)CS/C2=N\C(=O)Nc2ccc(-c3ncn(-c4ccc(OC(F)(F)F)cc4)n3)cc2)c1C [Molecule A75]	50 to 100	50 to 100	
CC(C)c1ccccc1N/C(S)=C/C(=O)Nc1ccc(-c2ncn(-c3ccc(OC(F)(F)F)cc3)n2)cc1 [Molecule A21, 3-((2-isopropylphenyl)amino)-3-thioxo-N-(4-(1-(4-(trifluoromethoxy)phenyl)-1H-1,2,4-triazol-3-yl)phenyl)propanamide]		50 to 100	50 to 100
Cc1cc(C)c(N2CC(C)CS/C2=N\C(=O)Nc2ccc(-c3ncn(-c4ccc(OC(F)(F)F)cc4)n3)cc2)c(C)c1 (stereo not shown) [Molecule A41]		50 to 100	50 to 100

Compound	pest or weed control at 0.5 µg/cm2 [1] [%]	pest or weed control at 50 µg/cm2 [2] [%]	pest or weed control at 50 µg/cm2 [1] [%]
Cc1ccc(N/C(S)=N/C(=O)Nc2ccc(-c3ncn(-c4ccc(OC(F)(F)F)cc4)n3)cc2)c(C)c1 [Molecule A68]	50 to 100	50 to 100	
CC(C)c1ccccc1N/C(S)=N/C(=O)Nc1ccc(-c2ncn(-c3ccc(OC(F)(F)F)cc3)n2)cc1 [Molecule A48]		50 to 100	50 to 100
Cc1ccccc1N/C(S)=C(\C#N)C(=O)Nc1ccc(-c2ncn(-c3ccc(OC(F)(F)F)cc3)n2)cc1 [Molecule A29, (Z)-2-Cyano-3-mercapto-3-(o-tolylamino)-N-(4-(1-(4-(trifluoromethoxy)phenyl)-1H-1,2,4-triazol-3-yl)phenyl)acrylamide]		0 to 50	50 to 100
COc1ccc(N/C(=N/C(=O)Nc2ccc(-c3ncn(-c4ccc(C(F)(F)F)cc4)n3)cc2)SC)c(C)c1 [Molecule A2, (Z)-Methyl N-(4-methoxy-2-methylphenyl)-N′-((4-(1-(4-(trifluoromethyl)phenyl)-1H-1,2,4-triazol-3-yl)phenyl)carbamoyl)carbamimidothioate]		50 to 100	50 to 100
Cc1ccc(N2C(=O)CS/C2=N\C(=O)Nc2ccc(-c3ncn(-c4ccc(OC(F)(F)F)cc4)n3)cc2)c(C(C)C)c1 [Molecule A88]	50 to 100	50 to 100	
Cc1cccc(Cl)c1N1C(=O)CS/C1=N\C(=O)Nc1ccc(-c2ncn(-c3ccc(OC(F)(F)F)cc3)n2)cc1 [Molecule A74]	50 to 100	50 to 100	
CCc1cccc(C)c1N/C(S)=N/C(=O)Nc1ccc(-c2ncn(-c3ccc(OC(F)(F)F)cc3)n2)cc1 [Molecule A97]	50 to 100	50 to 100	
CC(C)c1cc(F)ccc1N1C(=O)CS/C1=N\C(=O)Nc1ccc(-c2ncn(-c3ccc(OC(F)(F)F)cc3)n2)cc1 [Molecule A117]	50 to 100	50 to 100	
Cc1ccc(N/C(S)=N/C(=O)Nc2ccc(-c3ncn(-c4ccc(OC(F)(F)F)cc4)n3)cc2)c(C(C)C)c1 [Molecule A84]	50 to 100	50 to 100	
CC(C)n1nccc1N1C(=O)CS/C1=N\C(=O)Nc1ccc(-c2ncn(-c3ccc(OC(F)(F)F)cc3)n2)cc1 [Molecule A121]	50 to 100	50 to 100	
Cc1cccc(C)c1N/C(S)=C/C(=O)Nc1ccc(-c2ncn(-c3ccc(OC(F)(F)F)cc3)n2)cc1 [Molecule A23, 3-((2,6-dimethylphenyl)amino)-3-thioxo-N-(4-(1-(4-(trifluoromethoxy)phenyl)-1H-1,2,4-triazol-3-yl)phenyl)propanamide]		50 to 100	50 to 100
O=C(/N=C(\S)Nc1ccccc1C1CC1)Nc1ccc(-c2ncn(-c3ccc(OC(F)(F)F)cc3)n2)cc1 [Molecule A63]	50 to 100	50 to 100	
O=C(/N=C1\SCC(=O)N1c1ccc(Cl)cc1Cl)Nc1ccc(-c2ncn(-c3ccc(OC(F)(F)F)cc3)n2)cc1 [Molecule A92]	50 to 100	50 to 100	
Cc1cccc(C)c1N/C(O)=C/C(=O)Nc1ccc(-c2ncn(-c3ccc(OC(F)(F)F)cc3)n2)cc1 [Molecule A32, (Z)-3-(2,6-dimethylphenylamino)-3-hydroxy-I-(4-(1-(4-(trifluoromethoxy)phenyl)-1H-1,2,4-triazol-3-yl)phenyl)acrylamide]		50 to 100	50 to 100
CC(C)C(=O)OCS/C(=N\C(=O)Nc1ccc(-c2ncn(-c3ccc(OC(F)(F)C(F)(F)F)cc3)n2)cc1)Nc1ccccc1C(C)C [Molecule A6, (Z)—((N-(2-Isopropylphenyl)-N′-((4-(1-(4-(pentafluoroethoxy)phenyl)-1H-1,2,4-triazol-3-yl)phenyl)carbamoyl)carbamimidoyl)thio)methyl isobutyrate]		50 to 100	50 to 100
Cc1cccc(C)c1N1CC(C)CS/C1=N\C(=O)Nc1ccc(-c2ncn(-c3ccc(OC(F)(F)F)cc3)n2)cc1 (stereo not shown) [Molecule A39]		50 to 100	50 to 100
Cc1cc(C)c(N/C(=N\C(=O)Nc2ccc(-c3ncn(-c4ccc(OC(F)(F)F)cc4)n3)cc2)SCOC(=O)C(C)C)c(C)c1 [Molecule A59]		50 to 100	50 to 100
